Experimental data from ChEMBL document CHEMBL1833912, “Discovery of PF-184563, a potent and selective V1a antagonist for the treatment of dysmenorrhoea. The influence of compound flexibility on microsomal stability” (Bioorg Med Chem Lett, 2011).

What was measured:
Type in all cases: ADME, organism-based
Settings in all cases: in vivo
[1] = Tmax in Sprague-Dawley rat at 2 mg/kg, iv and po; set-up: dose 2 mg/kg, route oral
Rattus norvegicus = experiment: Volume of distribution in Sprague-Dawley rat at 2 mg/kg, iv and po; set-up: dose 2 mg/kg, route oral
[2] = Cmax in Sprague-Dawley rat at 2 mg/kg, iv and po; set-up: dose 2 mg/kg, route oral
[3] = Bioavailability in Sprague-Dawley rat at 2 mg/kg, iv and po

For CN1Cc2cc(Cl)ccc2-n2c(nnc2C2CCN(c3ccccn3)CC2)C1, the Tmax [1] was 48 min, the Vd (Rattus norvegicus) was 2.7 L/kg and the Cmax [2] was 97 ng/mL. For the same molecule, the bioavailability [3] was 34%.
